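Assay format: 96-well plates, 48-hour exposure. GI50: concentration for 50% inhibition of growth. At the TGI there is no net growth.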
Key:
Test in all cases: growth of human tumour cells (NCI), 48 h
SNB-75 CNS = test system: SNB-75 CNS
CAKI-1 renal = test system: CAKI-1 renal
NCI/ADR-RES ovarian = test system: NCI/ADR-RES ovarian
DMS 114 small cell lung = test system: DMS 114 small cell lung
SF-268 CNS = test system: SF-268 CNS
LOX IMVI melanoma = test system: LOX IMVI melanoma
HOP-92 NSCLC = test system: HOP-92 NSCLC
SF-295 CNS = test system: SF-295 CNS
OVCAR-4 ovarian = test system: OVCAR-4 ovarian
M14 melanoma = test system: M14 melanoma

Row | SMILES | TGI (SNB-75 CNS) [µM] | TGI (CAKI-1 renal) [µM] | TGI (NCI/ADR-RES ovarian) [µM] | TGI (DMS 114 small cell lung) [µM] | TGI (SF-268 CNS) [µM] | TGI (LOX IMVI melanoma) [µM] | TGI (HOP-92 NSCLC) [µM] | TGI (SF-295 CNS) [µM] | TGI (OVCAR-4 ovarian) [µM] | TGI (M14 melanoma) [µM] | GI50 (SNB-75 CNS) [µM] | GI50 (CAKI-1 renal) [µM] | GI50 (NCI/ADR-RES ovarian) [µM] | GI50 (SF-268 CNS) [µM] | GI50 (LOX IMVI melanoma) [µM] | GI50 (M14 melanoma) [µM] | GI50 (HOP-92 NSCLC) [µM] | GI50 (SF-295 CNS) [µM] | GI50 (OVCAR-4 ovarian) [µM]
1 | COc1ccc2c3c1OC1CC(O)C=CC31CCN(C)C2 (stereo unspecified) | > 150 | > 150 | > 150 | > 150 | > 91.8 | > 150 | > 150 | > 150 | > 150 |  |  |  |  |  |  |  |  |  | 
2 | CCCC/C=C1\CCC(CN2CCCCC2)C1=O (stereo unspecified) | > 100 | 17.8 | > 100 | 16.1 | 51.6 | > 48.2 | 21 | 45.5 | 48 | 24.4 |  |  |  |  |  |  |  |  | 
3 | CCOC(=O)/C(O)=C1\C(=O)N(C)C(=O)C1c1ccc(OC)c(OC)c1 (stereo unspecified) | > 100 | > 100 | > 100 | > 100 | > 100 | > 100 | > 100 | > 100 | > 100 |  |  |  |  |  |  |  |  |  | 
4 | O=C(Nc1ccccc1F)c1c(O)nc2sccn2c1=O | > 10 | > 10 | > 10 |  | > 10 | > 10 |  | > 10 | > 10 | > 10 |  |  |  |  |  |  |  |  | 
5 | O=C1C(Br)=CC2([N+](=O)[O-])CCNc3c(O)c4c5c(c3C2=C1Br)=NCCC=5C=N4 (stereo unspecified) | 20.5 | 5.25 | 6.52 | 0.545 | 6.27 | 6.4 | 2.07 | 4.63 | 3.7 |  |  |  |  |  |  |  |  |  | 
6 | COc1ccc2[nH]c(C(=O)N3CC(CCl)c4ccc(N)cc43)cc2c1 (stereo unspecified) | 0.475 | 0.299 | 2.28 |  |  | 0.601 | > 100 |  | 0.609 | 0.319 |  |  |  |  |  |  |  |  | 
7 | COC(=O)/C=C\Sc1ccn(/C=C\C(=O)OC)c(=S)n1 | 43.1 | 31.9 | 40.7 |  | 65.9 | 9.35 | 47.7 |  | 35.3 | > 100 |  |  |  |  |  |  |  |  | 
8 | O=C(CCCn1cnc([N+](=O)[O-])n1)NCCn1ccnc1[N+](=O)[O-] | > 100 | > 100 |  |  | > 100 | > 100 | > 100 | > 100 | > 100 | > 100 |  |  |  |  |  |  |  |  | 
9 | CC1(C)OP23(NC(=O)OC2(C(F)(F)F)c2ccccc2O3)OC1(C)C (stereo unspecified) | > 100 |  |  | > 100 | > 100 | > 100 |  | > 100 | > 100 | > 100 |  |  |  |  |  |  |  |  | 
10 | CC(=O)O[C@H]1CC[C@@]2(C)C(=CC[C@@H]3[C@@H]2CC[C@]2(C)C(c4cccnc4)=CC[C@@H]32)C1 | 15.6 | > 100 | 34.2 |  | > 100 | > 100 | 32.5 | 8.35 | > 100 | > 100 | 2.6 | 8.38 | 3.99 | 9.61 | 6.49 | 5.67 | 3.08 | 2.33 | 4.61
11 | N/N=C(\C(=O)Nc1c(Cl)cc([N+](=O)[O-])cc1Cl)C(c1cnc2ccc([N+](=O)[O-])cc2n1)[N+](=O)[O-] (stereo unspecified) | > 100 | > 100 |  | > 100 | > 100 | > 100 | > 100 | > 100 | > 100 |  |  |  |  |  |  |  |  |  | 
